Assay results reported in article PMC12608155, “Discovery of Potential Antileishmanial Compounds Through Phenotypic Screening of an Alkaloid Library” (Molecules, 2025).
Read-outs that look alike come from different tables or passages of the source.

Key:
[1] = test system: L. donovani IRFP axenic amastigotes; experiment: Dose-response assay on axenic amastigotes; type: cell-based, Leishmania donovani
Method: The objective of the present study was to identify new antileishmanial drug candidates by screening a commercial library of plant-derived alkaloids using a platform based on axenic amastigotes of L. donovani IRFP—the causative agent of VL—genetically modified to emit infrared fluorescence during their viable stage (hereafter referred to as L. donovani IRFP). To this end, single-dose assays at 10 μM and 1 μM, as well as dose–response assays, were performed. Compounds showing significant activity in the initial screening were subsequently clustered according to chemical structure using the DataWarrior tool, and representative compounds were further evaluated in dose response assays against axenic amastigotes.
Female Balb/c mice aged from 6 to 8 weeks were intraperitoneally inoculated with 1.5 × 10^9 infective L. donovani IRFP metacyclic promastigotes. Between 8 and 12 weeks after infection, mice were humanely euthanised and bone marrow was collected from the femurs and tibias of both hind limbs. The bones were cut at both ends, and prewarmed PBS was flushed through the medullary cavity using a syringe fitted with a 27G needle, to extract the bone marrow cells. The resulting cell suspension was filtered through a 100 µm cell strainer and centrifuged at 2500 rpm for 10 min at room temperature. To obtain free amastigotes, the pelleted cells were resuspended within a 75 mL ventilated flask in amastigote culture medium (15 mM KCl; 136 mM KH2PO4; 10 mM K2HPO4.3H2O; 0.5 mM MgSO4.7 H2O; 24 mM NaHCO3; 22 mM glucose; 1 mM glutamine, 1x RPMI 1640 vitamin mix (Sigma-Aldrich, Merck, Darmstadt, Germany), 10 mM folic acid, […], 1x RPMI amino acid mix (Sigma-Aldrich, Merck, Darmstadt, Germany), […], antibiotic mixture, 25 mM MES, 10% FBS (Gibco, ThermoFisher Scientific, Waltham, MA, USA) and incubated at 37 °C in a humidified atmosphere containing 5% CO2 [46].
The efficacy of the selected compounds was assessed by measuring near-infrared fluorescence (700 nm) using an Odyssey Infrared Imaging System (Li-Cor, Lincoln, NE, USA) following the previously described protocols.

RAW 264.7 = experiment: Cytotoxicity in RAW 264.7 cells (alamarBlue, 72 h); settings: read-out: CC50 RAW 264.7; 72 h, alamarBlue
Method: (§1) To this end, we calculated SIs from 16 preselected results from the ex vivo system. With this aim, dose–response curves were performed in duplicate across at least three independent experiments using RAW 264.7 mouse macrophages (as a model of host cells harboring amastigotes) and HepG2 (as a model for assessing systemic toxicity).
(§2) To evaluate the safety of the selected compounds, two cell lines were employed: RAW 264.7 (a mouse macrophage-derived cell line) and HepG2 (a human hepatoma cell line). Furthermore, to determine the intestinal tolerance relevant to potential oral administration, mouse intestinal organoids were prepared.
(§3) RAW 264.7 and HepG2 were routinely cultured under standard conditions. RAW 264.7 cells were maintained in RPMI medium (Gibco) supplemented with, 25 mM HEPES, 24 mM NaHCO3, 2 mM L-glutamine, mixture of antibiotics and 10% FBS. HepG2 cells were cultured in DMEM/F-12 (Gibco) and supplemented 10% of FBS. For cytotoxicity assays, 10,000 cells per well were seeded into 96-well plates and incubated overnight at 37 °C with 5% of CO2. Subsequently, 2-fold serial dilutions of the compounds were added and incubated for 72 h. Cell viability using the alamarBlue™ assay according to the manufacturer’s instructions, and fluorescence was measured with a Varioskan™ LUX microplate reader (ThermoFisher Scientific, Waltham, MA, USA). Non-linear regression analyses were performed using SigmaPlot^TM software (version 10.0) to calculate CC50. Data were obtained from at least three independent experiments performed in duplicate.

HepG2 = experiment: Cytotoxicity in HepG2 cells (alamarBlue, 72 h); settings: read-out: CC50 HepG2; 72 h, alamarBlue
Method: as §1, §2, §3

[2] = test system: L. donovani IRFP axenic amastigotes; experiment: Primary single-concentration screening on axenic amastigotes, growth inhibition at 72 h; type: cell-based, Leishmania donovani; settings: axenic amastigotes; for Growth Inhibition (%) at 72h, 1 µM_Exp1 / Growth Inhibition (%) at 72h, 1 µM_Exp2 / inhibition at 1 µM: 1 µM; for Growth Inhibition (%) at 72h, 10 µM_Exp1 / Growth Inhibition (%) at 72h, 10 µM_Exp2 / inhibition at 10 µM: 10 µM; for inhibition at 1 µM / inhibition at 10 µM: Leishmania donovani
[3] = test system: L. donovani IRFP intramacrophagic amastigotes; experiment: Dose-response assay on ex vivo infected splenic explants (intramacrophagic amastigotes); type: cell-based, Leishmania donovani; settings: read-out: EC50 Intramacrophagic Amastigotes
[4] = test system: mouse intestinal organoids; experiment: Tolerance of mouse intestinal organoids (alamarBlue); type: cell-based; settings: 72 h incubation, Figure S4
Text: Mouse intestinal organoids were generated following protocols standardized previously. Briefly, to obtain adult intestine stem cells, C57BL/6 mice were humanely euthanized. A section of the duodenum was excised, rinsed in ice-cold PBS, and cut into small pieces for gentle dissociation using Gentle Cell Dissociation Reagent. Tissue fragments enriched in duodenal crypts and little tissue debris were microscopically selected and resuspended in a 1:1 mixture of Geltrex™ and IntestiCult™ Mouse Medium (Gibco, ThermoFisher Scientific, Waltham, MA, USA /Stemcell Technologies^TM, Vancouver, BC, Canada). Aliquots of 50 µL of this suspension were dispensed into the center of each well of a prewarmed 24-well plate to form domes containing organoids, which were then incubated to allow matrix polymerization. Then, […] of IntestiCult™ Mouse Medium was added to each well. The plate was incubated at 37 °C in a humidified atmosphere containing 5% CO2, and the culture medium was refreshed every 48 h. During this period, organoids continued to proliferate, and passaging was performed at a 1:4 ratio every 7–10 days.
To determine the in vitro tolerance to oral administration of the active compounds, a 384-well assay was adapted from the protocol described by Du and co-workers. Briefly, following medium removal, organoids were collected from the extracellular matrix using the same procedure as for passaging. The resulting pellet was resuspended in 3.2 mL of a 1:1 mixture of Geltrex™ LDEV-Free Reduced Growth Factor Basement Membrane Matrix (without phenol red, Gibco) and IntestiCult™ Mouse Medium. Using a chilled pipette dispenser, 8 µL of the organoid suspension was dispensed into pre-cooled 384-well plates, which were then gently agitated to evenly distribute the matrix. The plates were incubated at 37 °C for 10 min and then, 32 µL of IntestiCult™ Mouse Medium was added to each well. To prevent edge effects, 100 µL of sterile water was added to the perimeter wells. After 3 days of culture, 10 µL per well of the test compounds dissolved in IntestiCult™ Mouse Medium were added. Positive (0.03% H2O2) and negative (0.2% DMSO) controls were included in each assay. After 72 h of incubation, 5 µL of alamarBlue™ HS were added to each well, and fluorescence was measured after 24 h using a Varioskan™ LUX microplate reader. All assays were conducted in triplicate and repeated in at least three independent experiments.

[5] = Cytotoxicity in RAW 264.7 cells (alamarBlue, 72 h); settings: mouse
Method: as §1, §2, §3

[6] = Cytotoxicity in HepG2 cells (alamarBlue, 72 h); settings: human
Method: as §1, §2, §3

[7] = primary cultures of infected mouse splenocytes
[8] = experiment 1, 72 h, read-out: Growth Inhibition (%) at 72h, 1 µM_Exp1
[9] = experiment 2, 72 h, read-out: Growth Inhibition (%) at 72h, 1 µM_Exp2
[10] = experiment 1, 72 h, read-out: Growth Inhibition (%) at 72h, 10 µM_Exp1
[11] = experiment 2, 72 h, read-out: Growth Inhibition (%) at 72h, 10 µM_Exp2
[12] = Leishmania donovani, Splenocyte, primary cultures of infected mouse splenocytes
[13] = Leishmania donovani, Splenocyte, in Mus musculus

SMILES | IC50 [1] | CC50 (RAW 264.7) | CC50 (HepG2) | Growth Inhibition (%) at 72h, 1 µM_Exp1 ([2]; experiment 1, 72 h) | Growth Inhibition (%) at 72h, 1 µM_Exp2 ([2]; experiment 2, 72 h) | Growth Inhibition (%) at 72h, 10 µM_Exp1 ([2]; experiment 1, 72 h) | Growth Inhibition (%) at 72h, 10 µM_Exp2 ([2]; experiment 2, 72 h) | EC50 [3, 7] | CC50 [4] | IC50 ([1]; Leishmania donovani) | CC50 at 72 h ([5]; RAW 264.7 macrophage cells) | CC50 at 72 h ([6]; HepG2 hepatoma cells) | inhibition at 1 µM [2, 8] | inhibition at 1 µM [2, 9] | inhibition at 10 µM [2, 10] | inhibition at 10 µM [2, 11] | EC50 [3, 12] | CC50 at 72 h [5] | CC50 at 72 h [6] | EC50 [3, 13]
CCOC1c2c(ccc3c2OCO3)-c2ccc3cc4c(cc3c2N1C)OCO4 (stereo not shown) [Ethoxysanguinarine] | 210 ± 30 nM | 1620 ± 110 nM | 1440 ± 30 nM | 100.74% | 99.44% | 100.41% | 100.07% | 840 ± 30 nM |  |  |  |  |  |  |  |  |  |  |  | 
c1c2c(cc3c1OCO3)-c1cc3cc4c(cc3c[n+]1CC2)OCO4 [Pseudocoptisine] | 810 ± 120 nM | > 10000 nM | > 10000 nM | 65.54% | 88.42% | 97.95% | 99.04% | 1430 ± 70 nM | > 10000 nM |  |  |  |  |  |  |  |  |  |  | 
COc1ccc2c(c1OC)CN(C)c1c-2ccc2cc3c(cc12)OCO3 [Dihydrochelerythrine] |  |  |  |  |  |  |  |  |  | 60 ± 5 nM | > 50000 nM | > 50000 nM | 100% | 97.9% | 100% | 100% | 10500 ± 750 nM |  |  | 
CC[C@@H]1[C@H]2CCCCN3[C@H]2[C@H](C[C@H]3[C@@H]2C[C@H](C)C(=O)O2)[C@@H]2[C@H]1OC(=O)[C@H]2C [Tuberostemonine] |  |  |  |  |  |  |  |  |  | 2060 ± 110 nM |  |  | 63.6% | 53% | 102% | 101% | > 50000 nM | 50000 ± 5510 nM | > 40000 nM | 
CN1Cc2c(ccc3c2OCO3)-c2ccc3cc4c(cc3c21)OCO4 [Dihydrosanguinarine] |  |  |  |  |  |  |  |  |  | 190 ± 10 nM |  |  | 99.3% | 97.6% | 99.8% | 99.7% |  | 46500 ± 10100 nM | > 40000 nM | 8550 ± 1330 nM
CN1C(=O)/C(=C2/C(=O)Nc3ccccc32)c2ccccc21 [Meisoindigo] |  |  |  |  |  |  |  |  |  | 1530 ± 210 nM | 14900 ± 900 nM | 20400 ± 1400 nM | 100% | 100% | 100% | 100% | 9300 ± 520 nM |  |  | 
C[n+]1cc2c3c(ccc2c2ccc4cc5c(cc4c21)OCO5)OCO3 [Sanguinarine] |  |  |  |  |  |  |  |  |  | 190 ± 10 nM | 1840 ± 60 nM | 2080 ± 60 nM | 99.7% | 99.5% | 100% | 101% |  |  |  | 850 ± 30 nM
CC[C@@H]1[C@H]2CCCCN3[C@H]2[C@@H](C[C@H]3[C@@H]2C[C@H](C)C(=O)O2)[C@H]2[C@@H]1OC(=O)[C@H]2C [Neotuberostemonine] |  |  |  |  |  |  |  |  |  | 1270 ± 60 nM |  |  | 38% | 69.7% | 101% | 101% | > 25000 nM | 39100 ± 2200 nM | > 50000 nM | 
COc1cc2c3c(cc4ccccc4c3c1OC)N(C)CC2 [Dehydronuciferine] |  |  |  |  |  |  |  |  |  | 1230 ± 30 nM | 18600 ± 1110 nM | 25500 ± 5430 nM | 86.7% | 77.8% | 100% | 100% | > 50000 nM |  |  | 
O=C(CC1NCCCC1O)Cn1cnc2cc(Br)c(Cl)cc2c1=O (stereo not shown) [Halofuginone] |  |  |  |  |  |  |  |  |  |  |  |  | 93.7% | 90.9% | 97.7% | 98.2% |  |  |  | 
C[C@@H]1CC[C@@]2(NC1)O[C@H]1C[C@H]3[C@@H]4CC=C5C[C@@H](O[C@@H]6O[C@H](CO)[C@@H](O[C@@H]7O[C@@H](C)[C@H](O)[C@@H](O)[C@H]7O)[C@H](O)[C@H]6O[C@@H]6O[C@@H](C)[C@H](O)[C@@H](O)[C@H]6O)CC[C@]5(C)[C@H]4CC[C@]3(C)[C@H]1[C@@H]2C [Solamargine] |  |  |  |  |  |  |  |  |  |  |  |  | 62.8% | 11.2% | 93.6% | 94.3% |  |  |  | 
c1ccc2c(Cc3c[nH]c4ccccc34)c[nH]c2c1 [3,3'-Diindolylmethane] |  |  |  |  |  |  |  |  |  |  |  |  | -59.5% | -44.6% | 100% | 95.7% |  |  |  | 
